According to patent US20250197420A1, “MACROCYCLIC COMPOUNDS, COMPOSITIONS, AND METHODS OF USING THEREOF” (Sionna Therapeutics Inc., priority 2022, published 2025):

Legend:
[1] = test system: Primary human bronchial epithelial cells from a ΔF508 homozygous CF donor (CF-HBE cells); test: TECC24 recording of CFTR-mediated transepithelial chloride transport, AUC fold over benchmark VX-809 @10 μM; format: cell-based; conditions: 48 hours incubation, AUC of forskolin-stimulated IEQ
Procedure, shortened: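 CF-HBE cells on inserts were treated with compound for 48 h at 36.5 °C, then recorded in current-clamp with benzamil 10 μM, forskolin 10 μM, and finally CFTR inhibitor-172 20 μM in pH 7.4 Hepes saline. Equivalent Cl− current AUC between forskolin and inhibitor addition is expressed as a ratio to VX-809 AUC: A <3, B 3–6, C 6–20.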

[2] = molecular target: T1, Purified recombinant NBD1 (Homo sapiens, UniProt P13569); test: Aggregation analysis using differential static light scattering (DSLS): thermal stability of NBD1; format: binding; conditions: NBD1 0.2 mg/ml; Tagg of compound well minus average Tagg of DMSO control wells
T1 construct: Purified recombinant NBD1 was produced using previously described methods; made in house
Procedure, shortened: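 Recombinant NBD1 at 0.2 mg/ml in Tris/NaCl/MgCl2 buffer with 2 mM ATP, 2 mM DTT, 1% glycerol, pH 7.6, was incubated with compound and heated at 1 °C/min to 70 °C while static light scattering was monitored. Tagg was taken from the curve inflection point and reported as ΔTagg relative to DMSO controls.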

T1 sequence (P13569 423-646 limits assumed): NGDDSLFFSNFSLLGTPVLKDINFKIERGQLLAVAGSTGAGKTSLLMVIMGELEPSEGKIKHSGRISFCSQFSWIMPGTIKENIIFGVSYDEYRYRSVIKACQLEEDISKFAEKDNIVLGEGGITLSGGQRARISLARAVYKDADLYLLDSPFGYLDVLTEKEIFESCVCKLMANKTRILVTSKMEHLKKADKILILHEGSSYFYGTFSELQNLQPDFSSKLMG

SMILES	TECC (test agent AUC divided by VX-809 AUC) [1]	DSLS (ΔTagg) [2]
[2H]C([2H])([2H])n1nc2nc1-c1cc(ccc1F)Oc1c(F)cc3[nH]ccc3c1CCC(=O)N(C)CC(C)(C)CCCC2(C)c1cccc(CCC(=O)O)c1 (single isomer, unassigned) [Compound 77B, 3-[3-[23,29-difluoro-6,10,10,12-tetramethyl-13-oxo-3-(trideuteriomethyl)-25-oxa-3,4,12,20,31-pentazapentacyclo[24.3.1.12,5.016,24.017,21]-hentriaconta-1(30),2(31),4,16,18,21,23,26,28-nonaen-6-yl]phenyl]propanoic acid]	A (a TECC value less than 3 is marked “A”)	A (an ΔTagg value less than or equal to 5 °C is marked “A”)
CN1CC(C)(C)CCCC(C)(c2cccc(CCC(=O)O)c2)c2cnc([nH]2)-c2cc(ccc2F)Oc2c(F)cc3[nH]cnc3c2CCC1=O (single isomer, unassigned) [Compound 72B, 3-[3-(23,29-difluoro-6,10,10,12-tetramethyl-13-oxo-25-oxa-3,12,18,20,31-pentazapentacyclo-[24.3.1.12,5.016,24.017,21]hentriaconta-1(30),2,4,16,18,21,23,26,28-nonaen-6-yl)phenyl]propanoic acid]	A (a TECC value less than 3 is marked “A”)	B (a value above 5 °C and less than or equal to 10 °C is marked “B”)
O=C(O)CCc1cccc(C2CCCCCCNC(=O)CCc3c(c(F)cc4[nH]ccc34)Oc3ccc(F)c(c3)-c3ncc2[nH]3)c1 (stereo not drawn) [Compound 4, 3-[3-(24,30-Difluoro-14-oxo-26-oxa-3,13,21,32-tetrazapentacyclo-[25.3.1.12,5.017,25.018,22]dotriaconta-1(31),2,4,17,19,22,24,27,29-nonaen-6-yl)phenyl]propanoic acid]	B (a value between 3 and 6 is marked “B”)	C (a value greater than 10 °C and less than or equal to 25 °C is marked “C”)
C[C@@H](Cc1cccc([C@@]2(C)CCCC(C)(C)CN(C)C(=O)CCc3c(c(F)cc4[nH]ccc34)Oc3ccnc(c3)-c3nc2nn3C)c1)C(=O)O [Compound 118, (2S)-3-[3-[(6R)-23-fluoro-3,6,10,10,12-pentamethyl-13-oxo-25-oxa-3,4,12,20,29,31-hexazapentacyclo[24.3.1.12,5.016,24.017,21]hentriaconta-1(30),2(31),4,16,18,21,23,26,28-nonaen-6-yl]phenyl]-2-methyl-propanoic acid]	B (a value between 3 and 6 is marked “B”)	C (a value greater than 10 °C and less than or equal to 25 °C is marked “C”)
CNC(=O)CCc1cccc(C2(C)CCCC(C)(C)CN(C)C(=O)CCc3c(c(F)cc4[nH]ccc34)Oc3ccc(F)c(c3)-c3ncc2[nH]3)c1 (single isomer, unassigned) [Compound 53A, 3-[3-(23,29-difluoro-6,10,10,12-tetramethyl-13-oxo-25-oxa-3,12,20,31-tetrazapentacyclo-[24.3.1.12,5.016,24.017,21]hentriaconta-1(30),2,4,16,18,21,23,26,28-nonaen-6-yl)phenyl]-N-methyl-propanamide]	A (a TECC value less than 3 is marked “A”)	A (an ΔTagg value less than or equal to 5 °C is marked “A”)
CN1CC(C)(C)CCC(C)(c2cccc(CCC(=O)O)c2)c2nc(n(C)n2)-c2cc(ccc2F)Oc2c(F)cc3[nH]ccc3c2CCC1=O (single isomer, unassigned) [Compound 75B, 3-[3-(22,28-difluoro-3,6,9,9,11-pentamethyl-12-oxo-24-oxa-3,4,11,19,30-pentazapentacyclo[23.3.1.12,5.015,23.016,20]triaconta-1(29),2(30),4,15,17,20,22,25,27-nonaen-6-yl)phenyl]propanoic acid]	A (a TECC value less than 3 is marked “A”)	A (an ΔTagg value less than or equal to 5 °C is marked “A”)
CC1(C)CCCC(C)(c2ccccc2)c2nnc([nH]2)-c2cc(ccc2F)Oc2c(F)cc3[nH]ccc3c2COC(=O)NC1 (stereo not drawn) [Compound 91, 23,29-Difluoro-6,10,10-trimethyl-6-phenyl-14,25-dioxa-3,4,12,20,31-pentazapentacyclo[24.3.1.12,5.016,24.017,21]hentriaconta-1(30),2,4,16(24),17(21),18,22,26,28-nonaen-13-one]	A (a TECC value less than 3 is marked “A”)	B (a value above 5 °C and less than or equal to 10 °C is marked “B”)
CC1(c2ccccc2)CC(=O)NCCCCCc2c(c(F)cc3[nH]ccc23)Oc2ccc(F)c(c2)-c2ncc1[nH]2 (stereo not drawn) [Compound 27, 22,28-Difluoro-6-methyl-6-phenyl-24-oxa-3,9,19,30-tetrazapentacyclo[23.3.1.12,5.015,23.016,20]triaconta-1(29),2,4,15,17,20,22,25,27-nonaen-8-one]	A (a TECC value less than 3 is marked “A”)	A (an ΔTagg value less than or equal to 5 °C is marked “A”)
CN1CC(O)CCCCCC(C)(c2cccc(CCC(=O)O)c2)c2cnc([nH]2)-c2cc(ccc2F)Oc2c(F)cc3[nH]ccc3c2CC1=O (stereo not drawn) [Compound 112, 3-[3-(24,30-Difluoro-12-hydroxy-6,14-dimethyl-15-oxo-26-oxa-3,14,21,32-tetrazapentacyclo[25.3.1.12,5.017,25.018,22]dotriaconta-1(30),2,4,17(25),18(22),19,23,27(31),28-nonaen-6-yl)phenyl]propanoic acid]	B (a value between 3 and 6 is marked “B”)	C (a value greater than 10 °C and less than or equal to 25 °C is marked “C”)
Cn1nc2nc1-c1cc(ccc1F)Oc1c(F)cc3[nH]ccc3c1CCC(=O)NS(=O)(=O)CCCCC2(C)c1ccccc1 (stereo not drawn) [Compound 115]	A (a TECC value less than 3 is marked “A”)	C (a value greater than 10 °C and less than or equal to 25 °C is marked “C”)
CC1(C)CCCC(c2cccc(CCC(=O)O)c2)n2ccc(n2)-c2cc(ccc2F)Oc2c(F)cc3[nH]ccc3c2CCOC(=O)N1 (single isomer, unassigned) [Compound 95B, 3-[3-(23,29-difluoro-10,10-dimethyl-12-oxo-13,25-dioxa-5,11,20,31-tetrazapentacyclo-[24.3.1.12,5.016,24.017,21]hentriaconta-1(30),2(31),3,16(24),17(21),18,22,26,28-nonaen-6-yl)phenyl]propanoic acid]	B (a value between 3 and 6 is marked “B”)	B (a value above 5 °C and less than or equal to 10 °C is marked “B”)
CC(Cc1cccc(C2(C)CCCCC(C)(C)NC(=O)OCc3c(c(F)cc4[nH]ccc34)Oc3ccc(F)c(c3)-c3nc2nn3C)c1)C(=O)O (single isomer, unassigned) [Compound 101B, 3-[3-(23,29-difluoro-3,6,11,11-tetramethyl-13-oxo-14,25-dioxa-3,4,12,20,31-pentazapentacyclo[24.3.1.12,5.016,24.017,21]-hentriaconta-1(30),2(31),4,16,18,21,23,26,28-nonaen-6-yl)phenyl]-2-methyl-propanoic acid]	A (a TECC value less than 3 is marked “A”)	A (an ΔTagg value less than or equal to 5 °C is marked “A”)
O=C(O)CCc1cccc(C2CCCCCNC(=O)OCc3c(c(F)cc4[nH]ccc34)Oc3ccc(F)c(c3)-c3ncc2[nH]3)c1F (stereo not drawn) [Compound 85, 3-[3-(23,29-Difluoro-13-oxo-14,25-dioxa-3,12,20,31-tetrazapentacyclo[24.3.1.12,5.016,24.017,21]hentriaconta-1(30),2,4,16,18,21,23,26,28-nonaen-6-yl)-2-fluoro-phenyl]propanoic acid]	B (a value between 3 and 6 is marked “B”)	C (a value greater than 10 °C and less than or equal to 25 °C is marked “C”)
CN1CC(C)(C)CCCC(C)(c2cccc(CCC(=O)O)c2)c2nnc([nH]2)-c2cc(ccc2F)Oc2c(F)cc3[nH]ccc3c2CCC1=O (stereo not drawn) [Compound 44, 3-[3-(23,29-Difluoro-6,10,10,12-tetramethyl-13-oxo-25-oxa-3,4,12,20,31-pentazapentacyclo[24.3.1.12,5.016,24.017,21]hentriaconta-1(30),2,4,16,18,21,23,26,28-nonaen-6-yl)phenyl]propanoic acid]	C (a value between 6 and 20 is marked “C”)	C (a value greater than 10 °C and less than or equal to 25 °C is marked “C”)
[2H]C([2H])([2H])n1nc2nc1-c1cc(ccc1F)Oc1c(F)cc3[nH]ccc3c1CCC(=O)N(C)CC(C)(C)CCCC2(C)c1cccc(CCC(=O)NS(C)(=O)=O)c1 (single isomer, unassigned) [Compound 79A, 3-[3-[23,29-difluoro-6,10,10,12-tetramethyl-13-oxo-3-(trideuteriomethyl)-25-oxa-3,4,12,20,31-pentazapentacyclo[24.3.1.12,5.016,24.017,21]hentriaconta-1(30),2(31),4,16,18,21,23,26,28-nonaen-6-yl]phenyl]-N-methylsulfonyl-propanamide]	A (a TECC value less than 3 is marked “A”)	A (an ΔTagg value less than or equal to 5 °C is marked “A”)
